The assay has as its system HBV. In words: HBV infection in HepG2-NTCP cells (HBeAg AlphaLISA in supernatants). In kind it is cell-based. The following applies: Hepatitis B virus, 192 h; HBV infection of HepG2-NTCP cells; HBeAg in supernatants at day 8 post infection; read-out: Cellular EC50. How it is done:
HepG2-NTCP A3 cells were maintained in DMEM media supplemented with GlutaMAX™ 10% fetal bovine serum, 1% penicillin/streptomycin, and 5 μg/mL puromycin at 37° C. in a humidified atmosphere with 5% CO2 in a collagen-coated tissue culture flask.
HepG2-NTCP cells were seeded in 384 well plate containing 16,000 cells/well two days prior to the infection. On the day of infection, compounds were 3-fold serially diluted in DMSO and pre-incubated with HepG2-NTCP cells for two hours before purified HBV addition. HBV infection was carried out at 2000 GE/cell with 4% PEG, and the final concentration of DMSO is 0.5%. On day one post infection, HBV-containing media was aspirated, cells were washed once with PBS and then maintained in 2.5% DMSO containing media for the remainder of the assay.
Supernatants from infected HepG2-NTCP cells were collected at day 8 post infection, and the amount of viral antigen HBeAg was measured by HBeAg AlphaLISA detection kit (PerkinElmer) following the manufacturer's recommended protocol. Irrespective of readout, compound concentrations that reduce viral product accumulation in supernatants by […] relative to DMSO controls (EC50) are reported. EC50 ranges are as follows: A<0.1 μM; B 0.1-1 μM; C>1 μM.
Regarding `CC(C)C[C@@H]1CN(c2ccccc2)c2cc(Nc3ccncc3)c(-c3ccc(Cl)c(C(=O)O)c3)cc2S(=O)(=O)N1C` [Example 550], the concentration for a half-maximal effect (EC50) was over 1000 nM.
To `CC(=O)NS(=O)(=O)c1cc(-c2cc3c(cc2Cl)N(c2ccccc2)C[C@@H](C2CCCCC2)N(C)S3(=O)=O)ccc1F` [Example 223] belongs under 100 nM.
To `CC(C)C[C@@H]1CN(c2ccccc2)c2cc(Oc3ccccc3OC(F)(F)F)c(-c3ccc(F)c(C(=O)O)c3)cc2S(=O)(=O)N1C` [Example 437] belongs under 100 nM; to `CN1[C@H](COCc2ccccc2)CN(c2ccccc2)c2cc(Cl)c(-c3ccc(F)c(C(=O)O)c3)cc2S1(=O)=O` [Example 102], over 1000 nM.
For the molecule `CC(C)C[C@@H]1CN(c2ccccc2)c2cc(Oc3ccccc3F)c(-c3ccc(Cl)c(C(=O)O)c3)cc2S(=O)(=O)N1C` [Example 424], the half-maximal effective concentration (EC50) is under 100 nM.
`CN1[C@H](C2CCCCC2)CN(c2ccccc2)c2cc(C3CC(F)(F)C3)c(-c3ccc(F)c(C(=O)O)c3)cc2S1(=O)=O` [Example 589]: the EC50 was under 100 nM.
Then `CN1[C@H](C2CCCCC2)CN(c2ccccc2)c2cc(OCC34CC(CO3)C4)c(-c3ccc(F)c(C(=O)O)c3)cc2S1(=O)=O` [Example 371], with under 100 nM; and `CC(C)C[C@@H]1CN(c2ccccc2)c2cc(Cl)c(-c3ccc(O)c(C(=O)O)c3)cc2S(=O)(=O)N1C` [Example 160, (R)-5-(7-chloro-3-isobutyl-2-methyl-1,1-dioxido-5-phenyl-2,3,4,5-tetrahydrobenzo[f][1,2,5]thiadiazepin-8-yl)-2-hydroxybenzoic acid], with under 100 nM.
To `CN1[C@H](C2CCCCC2)CN(c2ccccc2)c2cc(C3CCN(C(=O)OC(C)(C)C)C3)c(-c3ccc(F)c(C(=O)O)c3)cc2S1(=O)=O` (some centres unmarked) [Example 593] belongs 100 to 1000 nM; to `COc1c(F)cccc1Oc1cc2c(cc1-c1ccc(F)c(C(=O)O)c1)S(=O)(=O)N(C)[C@H](C1CCCCC1)CN2c1ccccc1` [Example 407], under 100 nM; to `CC(C)C[C@@H]1CN(c2ccccc2)c2cc(Cl)c(-c3ccc4oncc4c3)cc2S(=O)(=O)N1C` [Example 185], 100 to 1000 nM.
To `CCCCC[C@H](C)Oc1cc2c(cc1-c1cc(F)c(C(=O)O)s1)S(=O)(=O)N(C)[C@H](C1CCCCC1)CN2c1ccccc1` [Example 490] belongs under 100 nM; to `CN1[C@H](C2CCCCC2)CN(c2cccc(F)c2)c2cc(Cl)c(-c3ccc(F)c(C(=O)O)c3)cc2S1(=O)=O` [Example 295], 100 to 1000 nM; to `COc1cc(-c2cc3c(cc2Cl)N(c2ccccc2)C[C@@H](C2CCCCC2)N(C)S3(=O)=O)sc1C(=O)O` [Example 118], under 100 nM.
`CN1[C@H](C2CCC2)CN(c2ccccc2)c2cc(Oc3ccccc3F)c(-c3ccc(F)c(C(=O)O)c3)cc2S1(=O)=O` [Example 463]: the concentration giving a half-maximal response (EC50) was under 100 nM.
For `CN1[C@H](CN2CCOCC2)CN(c2ccccc2)c2cc(Cl)c(-c3ccc(F)c(C(=O)O)c3)cc2S1(=O)=O` [Example 109], the EC50 is over 1000 nM.
On to `CC(C)C[C@@H]1CN(c2ccccc2)c2cc(Cl)c(-c3cccc(S(=O)(=O)NC(=O)c4ccccc4)c3)cc2S(=O)(=O)N1C` [Example 221], for which the concentration giving a half-maximal response (EC50) fell in the range of 100 to 1000 nM.
Consider `CC(C)C[C@@H]1CN(c2ccccc2)c2cc(Oc3ccc(F)cc3)c(-c3ccc(F)c(C(=O)O)c3)cc2S(=O)(=O)N1C` [Example 430], for which the 50% effective concentration (EC50) was under 100 nM.
To `CC(C)C[C@@H]1CN(c2ccccc2)c2cc(-c3cccc(F)c3)c(-c3ccc(F)c(C(=O)O)c3)cc2S(=O)(=O)N1C` [Example 575] belongs under 100 nM; to `CCCC[C@@H]1CN(c2ccccc2)c2cc(C)c(-c3ccc(F)c(C(=O)O)c3)cc2S(=O)(=O)N1C` [Example 566, (R)-5-(3-butyl-2,7-dimethyl-1,1-dioxido-5-phenyl-2,3,4,5-tetrahydrobenzo[f][1,2,5]thiadiazepin-8-yl)-2-fluorobenzoic acid], 100 to 1000 nM.
As to `CCCC[C@H]1CN(c2ccccc2)c2cc(N3CCCC3)c(-c3cccc(C(=O)O)c3)cc2S(=O)(=O)N1C` [Example 538], the concentration giving a half-maximal response (EC50) was over 1000 nM.
Then `CN1[C@H](C2CCCCC2)CN(c2ccccc2)c2cc(OCCCCO)c(-c3ccc(F)c(C(=O)O)c3)cc2S1(=O)=O` [Example 365], with under 100 nM; and `CC(C)C[C@@H]1CN(c2ccccc2)c2cc(Cl)c(-c3ccc(-c4ccccc4)c(C(=O)O)c3)cc2S(=O)(=O)N1C` [Example 215, (R)-4-(7-chloro-3-isobutyl-2-methyl-1,1-dioxido-5-phenyl-2,3,4,5-tetrahydrobenzo[f][1,2,5]thiadiazepin-8-yl)-[1,1′-biphenyl]-2-carboxylic acid], with 100 to 1000 nM.
As for `CN1[C@H](C2CCCCC2)CN(c2ccccc2)c2cc(OC3CC4(CCC4)C3)c(-c3cc(F)c(C(=O)O)s3)cc2S1(=O)=O` [Example 484], the half-maximal effective concentration (EC50) lay within 100 to 1000 nM.
For `CN1[C@H](C2CCCCC2)CN(c2ccccc2)c2cc(OCCc3ccsc3)c(-c3ccc(F)c(C(=O)O)c3)cc2S1(=O)=O` [Example 346], the concentration for a half-maximal effect (EC50) lay in the range of 100 to 1000 nM.
To `CC(C)OC(=O)Nc1cc(-c2cc3c(cc2Cl)N(c2ccccc2)C[C@@H](C2CCCCC2)N(C)S3(=O)=O)sc1C(=O)O` [Example 248] belongs under 100 nM; to `CC(C)C[C@@H]1CN(c2ccccc2)c2cc(Cl)c(-c3ccc4onc(N)c4c3)cc2S(=O)(=O)N1C` [Example 170], over 1000 nM; to `COc1cc(-c2cc3c(cc2Cl)N(c2ccccc2)C[C@@H](CC(C)C)N(C)S3(=O)=O)cc(C(=O)O)c1F` [Example 179, (R)-5-(7-chloro-3-isobutyl-2-methyl-1,1-dioxido-5-phenyl-2,3,4,5-tetrahydrobenzo[f][1,2,5]thiadiazepin-8-yl)-2-fluoro-3-methoxybenzoic acid], 100 to 1000 nM.
`CN1[C@H](C2CCCCC2)CN(c2ccccc2)c2cc(OCc3cccc(OC(F)(F)F)c3)c(-c3cc(F)c(C(=O)O)s3)cc2S1(=O)=O` [Example 511]: the EC50 lay in the range of 100 to 1000 nM.
To `COC[C@@H]1CN(c2ccccc2)c2cc(Cl)c(-c3ccc(F)c(C(=O)O)c3)cc2S(=O)(=O)N1C` [Example 95] belongs 100 to 1000 nM.
For `CC(C)C[C@@H]1CN(c2ccccc2)c2cc(Nc3ccc(F)cc3)c(-c3ccc(Cl)c(C(=O)O)c3)cc2S(=O)(=O)N1C` [Example 548], the EC50 was in the range of 100 to 1000 nM.
Then `CC(C)C[C@@H]1CN(c2ccccc2)c2cc(Cl)c(-c3cccc(C(N)=O)c3)cc2S(=O)(=O)N1C` [Example 167], with over 1000 nM; and `CN1[C@H](CC2CCCCC2)CN(c2ccccc2)c2cc(Cl)c(-c3ccc(F)c(C(=O)O)c3)cc2S1(=O)=O` [Example 52], with 100 to 1000 nM.
In the case of `CN1[C@H](C2CCCCC2)CN(c2ccccc2)c2cc(Oc3cc(F)cc(F)c3)c(-c3ccc(F)c(C(=O)O)c3)cc2S1(=O)=O` [Example 405], the 50% effective concentration (EC50) is under 100 nM.
To `CN1[C@H](CN2CCC(F)(F)CC2)CN(c2ccccc2)c2cc(Cl)c(-c3ccc(F)c(C(=O)O)c3)cc2S1(=O)=O` [Example 113] belongs over 1000 nM; to `CC(C)C[C@@H]1CN(c2ccccc2)c2cc(Cl)c(-c3ccc(C(F)(F)F)c(C(=O)O)c3)cc2S(=O)(=O)N1C` [Example 186], under 100 nM.
To `CN1[C@H](C2CCCCC2)CN(c2ccccc2)c2cc(C34CC(C3)C4)c(-c3ccc(F)c(C(=O)O)c3)cc2S1(=O)=O` [Example 587] belongs 100 to 1000 nM; to `CN1[C@H](C2CCCCC2)CN(c2ccccc2)c2cc(O[C@H]3C[C@H](F)C3)c(-c3ccc(F)c(C(=O)O)c3)cc2S1(=O)=O` [Example 381], under 100 nM.
Then `CC(C)C[C@@H]1CN(c2ccccc2)c2cc(Oc3ccc(Cl)c(C(F)(F)F)c3)c(-c3ccc(F)c(C(=O)O)c3)cc2S(=O)(=O)N1C` [Example 434], with 100 to 1000 nM; and `CN1[C@H](C2CCCCC2)CN(c2ccc(C#N)cc2)c2cc(Cl)c(-c3ccc(F)c(C(=O)O)c3)cc2S1(=O)=O` [Example 290], with 100 to 1000 nM; and `COCCOc1cc2c(cc1-c1cc(NC(=O)OC(C)(C)C)c(C(=O)O)s1)S(=O)(=O)N(C)[C@H](C1CCCCC1)CN2c1ccccc1` [Example 515, (R)-3-((tert-butoxycarbonyl)amino)-5-(3-cyclohexyl-7-(2-methoxyethoxy)-2-methyl-1,1-dioxido-5-phenyl-2,3,4,5-tetrahydrobenzo[f][1,2,5]thiadiazepin-8-yl)thiophene-2-carboxylic acid], with under 100 nM.
With `CN1[C@H](C2CCCCC2)CN(c2ccccc2)c2cc(OC3CCNCC3)c(-c3ccc(F)c(C(=O)O)c3)cc2S1(=O)=O` [Example 394, (R)-5-(3-cyclohexyl-2-methyl-1,1-dioxido-5-phenyl-7-(piperidin-4-yloxy)-2,3,4,5-tetrahydrobenzo[f][1,2,5]thiadiazepin-8-yl)-2-fluorobenzoic acid], the EC50 was over 1000 nM.
To `CC(C)CC1CN(c2ccccc2F)c2cc(Cl)c(-c3cccc(C(=O)O)c3)cc2S(=O)(=O)N1C` (centres unmarked) [Example 330] belongs 100 to 1000 nM; to `CC(C)C[C@@H]1CN(CC(C)C)c2cc(Oc3ccc(F)cc3)c(-c3ccc(F)c(C(=O)O)c3)cc2S(=O)(=O)N1C` [Example 475, (R)-2-fluoro-5-(7-(4-fluorophenoxy)-3,5-diisobutyl-2-methyl-1,1-dioxido-2,3,4,5-tetrahydrobenzo[f][1,2,5]thiadiazepin-8-yl)benzoic acid], 100 to 1000 nM.

These data come from patent publication US20240368096A1 (Enanta Pharmaceuticals, Inc., priority 2022, published 2024).
